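1) Cells in 96-well plates. 2) Compound, 48 h, 5 concentrations. 3) Linear interpolation between surrounding doses. 4) Unreached endpoint = highest concentration. Abbreviation: GI50, concentration required for 50% inhibition of growth. Definition used: TGI = concentration required for complete inhibition of growth.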
Assays:
Experiment in all cases: growth of human tumour cells (NCI), 48 h
OVCAR-3 ovarian = system: OVCAR-3 ovarian
UO-31 renal = system: UO-31 renal
UACC-62 melanoma = system: UACC-62 melanoma
SN12C renal = system: SN12C renal
A549 NSCLC = system: A549 NSCLC
IGROV1 ovarian = system: IGROV1 ovarian
HL-60(TB) leukemia = system: HL-60(TB) leukemia
NCI-H522 lung = system: NCI-H522 lung
DU-145 prostate = system: DU-145 prostate
MALME-3M melanoma = system: MALME-3M melanoma

SMILES | GI50 (OVCAR-3 ovarian) | TGI (OVCAR-3 ovarian) | GI50 (UO-31 renal) | TGI (UO-31 renal) | GI50 (UACC-62 melanoma) | TGI (UACC-62 melanoma) | GI50 (SN12C renal) | TGI (SN12C renal) | GI50 (A549 NSCLC) | TGI (A549 NSCLC) | GI50 (IGROV1 ovarian) | TGI (IGROV1 ovarian) | GI50 (HL-60(TB) leukemia) | TGI (HL-60(TB) leukemia) | GI50 (NCI-H522 lung) | TGI (NCI-H522 lung) | GI50 (DU-145 prostate) | TGI (DU-145 prostate) | GI50 (MALME-3M melanoma) | TGI (MALME-3M melanoma)
CN(C)CCCn1c2nc(=O)[nH]c(=O)c-2nc2cc(Cl)c(Cl)cc21 | 812 nM | 6.13 µM | 2730 nM | 10.9 µM | 4220 nM | 14.9 µM | 3.09 µM | 10.1 µM | 4.02 µM | 16.3 µM | 4650 nM | 13.9 µM | 3830 nM | 9.97 µM | 2100 nM | 4.23 µM | 16.4 µM | 30 µM | 9280 nM | 26.8 µM
CCOC(=O)c1cc(C(=O)c2cc(OC)c(OC)c(OC)c2)n2ccccc12 | 33.4 nM | 4.11 µM | – | > 100 µM | 43.9 nM | > 100 µM | 1.17 µM | > 100 µM | 0.134 µM | > 100 µM | 2960 nM | > 100 µM | 58.6 nM | – | 57.7 nM | > 37.1 µM | 0.175 µM | > 100 µM | 1060 nM | > 100 µM
CCNCCCn1c2c(c3ccc([N+](=O)[O-])cc3c1=O)C(=O)c1cc(OC)cnc1-2 | 61.6 nM | 0.302 µM | 32.7 nM | 0.176 µM | 26.7 nM | 0.168 µM | 0.0531 µM | 1.08 µM | 0.0776 µM | 0.296 µM | 184 nM | 1.45 µM | 37 nM | 0.657 µM | 36.1 nM | 0.898 µM | 0.0558 µM | 1.16 µM | 162 nM | 0.715 µM
C=C1C(=O)O[C@H]2[C@H]1CC/C(COC(=O)c1ccccc1)=C\CC[C@@]1(C)O[C@@H]21 | 482 nM | 1.74 µM | 1200 nM | 2.49 µM | 1440 nM | 3.13 µM | 1.39 µM | 3.26 µM | 3.33 µM | 13 µM | 787 nM | 2.66 µM | 981 nM | 3.95 µM | 1060 nM | 2.79 µM | 1.06 µM | 2.29 µM | 1820 nM | 3.86 µM
O=C(O)C1CCCCC1c1c2ccc(=O)cc-2oc2cc(O)ccc12 (stereo not drawn) | – | 69.2 µM | – | > 100 µM | – | > 100 µM | – | > 100 µM | – | > 100 µM | – | 41.3 µM | – | > 100 µM | – | 62.1 µM | – | 66.7 µM | – | > 100 µM
O=C(COc1cccc(/C=C2\CSc3ccccc3C2=O)c1)c1ccc(Cl)cc1 | 1800 nM | 3.51 µM | 1630 nM | 3.32 µM | 1650 nM | 3.24 µM | 2.54 µM | 8.47 µM | 11.8 µM | 65.6 µM | 2020 nM | 4.26 µM | 3570 nM | > 21 µM | 1610 nM | 3.67 µM | 2.31 µM | 5.61 µM | 2010 nM | 4.76 µM
CC(C)c1ccc(NC(=S)NC(=O)c2ccccc2)cc1 | – | 38.3 µM | – | 32.7 µM | – | 30.7 µM | – | > 100 µM | – | > 100 µM | – | 68.4 µM | – | 32.3 µM | – | 37.5 µM | – | 70.8 µM | – | 69.8 µM
CN1CCN(c2ccc(C(=O)Nc3cc(-c4cccc(NS(=O)(=O)c5ccccc5)c4)[nH]n3)cc2)CC1 | 12700 nM | 25.8 µM | 6260 nM | 27.8 µM | 11000 nM | 23.4 µM | 7.82 µM | 24 µM | 7.85 µM | 25.4 µM | 2640 nM | 21.9 µM | 3940 nM | 16.1 µM | 3290 nM | 13.2 µM | 8.52 µM | 21.2 µM | 9870 nM | 26.7 µM
NC1=Nc2cc(OCCCN3Cc4ccccc4C3)c(OCC3CC3)cc2C12CCCC2 | 2690 nM | 8.68 µM | 1490 nM | 3.14 µM | 1900 nM | 3.87 µM | 3.85 µM | 15.2 µM | 3.99 µM | 13.5 µM | 4170 nM | 17.2 µM | 2030 nM | 4.69 µM | 2250 nM | 4.87 µM | 4.44 µM | 16.2 µM | 1730 nM | 3.26 µM
Cc1c(N=Cc2ccc(N(CCC#N)CCC#N)cc2)c(=O)n(-c2ccccc2)n1C | – | > 100 µM | – | > 100 µM | – | > 100 µM | – | > 100 µM | – | > 100 µM | – | > 100 µM | – | > 100 µM | – | > 100 µM | – | > 100 µM | – | > 100 µM
Cn1c(=O)c(Oc2ccccc2)cc2cnc(NC3CCOCC3)nc21 | > 25000 nM | > 25 µM | > 25000 nM | > 25 µM | > 25000 nM | > 25 µM | > 25 µM | > 25 µM | > 25 µM | > 25 µM | > 25000 nM | > 25 µM | > 25000 nM | > 25 µM | > 25000 nM | > 25 µM | > 25 µM | > 25 µM | > 25000 nM | > 25 µM
C=C1C[C@@]2(C)C(CC[C@]3(C)C2CC=C2C4CC(C)(C)C[C@@H](OC(=O)/C(C)=C\C)[C@]4(C(=O)O)CC[C@]23C)C(C)(C)C1=O (stereo partly drawn) | 2080 nM | 5 µM | 1890 nM | 3.92 µM | 2930 nM | 10.3 µM | 3.22 µM | 15.2 µM | 3.8 µM | 25.8 µM | 3050 nM | 10.1 µM | 2560 nM | 7.08 µM | 2760 nM | 10.1 µM | 4.37 µM | 16 µM | 3890 nM | 15.6 µM
CC(=O)OC1Oc2ccccc2-c2oc(=O)c(-c3cc4ccccc4oc3=O)cc21 (stereo not drawn) | 19100 nM | 46.6 µM | 18000 nM | 35.4 µM | 17400 nM | 35.1 µM | 21.5 µM | 53.8 µM | 15.4 µM | 33 µM | 20500 nM | 48.6 µM | 39000 nM | > 100 µM | 18500 nM | 36.3 µM | 20.1 µM | 52.5 µM | 13900 nM | 36.5 µM
Cc1cc(N(CCCl)CCCl)ccc1/C=N/NC(=O)Cc1cc(=O)oc2cc(O)ccc12 | – | 72.8 µM | – | 47.2 µM | – | 13.2 µM | – | 38.2 µM | – | 42.2 µM | – | 40.7 µM | – | 33.5 µM | – | 31.5 µM | – | > 100 µM | – | 27.7 µM
COc1ccc2c(c1)C1(C(=O)N2)C(C#N)=C(c2ccccc2)Nc2c1c(-c1ccccc1)nn2-c1ccccc1 (stereo not drawn) | 1950 nM | 3.39 µM | 15800 nM | 30.1 µM | 5360 nM | 18.2 µM | 1.94 µM | 3.71 µM | 2.49 µM | 5.55 µM | 3570 nM | 16.4 µM | 3680 nM | 15.4 µM | 3750 nM | 18.3 µM | 2.71 µM | 6.82 µM | 1730 nM | 3.84 µM
COc1ccc2c(c1)/C(=N/OC(C)=O)c1c-2c(=O)[nH]c2ccccc12 | 16500 nM | 36.3 µM | 11100 nM | 25.2 µM | 16600 nM | 30.4 µM | 16.2 µM | 31 µM | 15.8 µM | 31.3 µM | 1520 nM | 11.8 µM | 1830 nM | 4.88 µM | 13500 nM | 31.4 µM | 10.6 µM | 25.3 µM | 13200 nM | 29.8 µM
NC1CCC(N[C@@H]2C[C@H]2c2ccccc2)CC1 (stereo partly drawn) | > 100000 nM | > 100 µM | 67400 nM | > 100 µM | 33600 nM | > 100 µM | > 100 µM | > 100 µM | > 100 µM | > 100 µM | 92500 nM | > 100 µM | > 100000 nM | > 100 µM | > 100000 nM | > 100 µM | > 100 µM | > 100 µM | 21100 nM | 84.7 µM
N#C/C(=C\c1ccc(Br)cc1)n1nnc2ccccc21 | 244 nM | 0.604 µM | 449 nM | 1.63 µM | 358 nM | 1.59 µM | 0.525 µM | 3.48 µM | 0.808 µM | 15 µM | 317 nM | 1.43 µM | 287 nM | 2.04 µM | 191 nM | 1.25 µM | 1.23 µM | 3.31 µM | 727 nM | 2.78 µM
C/C(=N\N=C(N)N)C(CN(C)C)C(c1ccccc1)c1c(O)c2ccccc2oc1=O (stereo not drawn) | – | > 100 µM | – | > 100 µM | – | > 100 µM | – | > 100 µM | – | > 100 µM | – | > 100 µM | – | > 100 µM | – | > 100 µM | – | > 100 µM | – | > 100 µM
NS(=O)(=O)c1ccc(NC(=O)c2cccc3cc4ccccc4nc23)cc1 | – | > 100 µM | – | > 100 µM | – | > 100 µM | – | > 100 µM | – | > 100 µM | – | > 100 µM | – | > 100 µM | – | > 100 µM | – | > 100 µM | – | > 100 µM

From PubChem BioAssay (NCI)
